Data as given in US12065654B2, “Plants having increased tolerance to herbicides” (BASF SE, priority 2014, dated 2024).

How the values were obtained:
[1] = tested on: HPPD enzymes from different organisms; assay: HPPD activity assay, summary statement; assay type: biochemical; details: all HPPD enzymes from different organisms of Table 12
Procedure: The activity assay for HPPD is based on the analysis of homogentisic acid by reversed phase HPLC.
The assay mixture can contain 150 mM potassium phosphate buffer pH 7.0, 50 mM L-ascorbic acid, 100 μM Catalase (Sigma-Aldrich), 1 μM FeSO4 and 0.2 units of purified HPPD enzyme in a total volume of 505 μl. 1 unit is defined as the amount of enzyme that is required to produce 1 nmol of HGA per minute at 20° C.
The reaction is allowed to proceed for 45 min at room temperature. The reaction is stopped by the addition of 50 μl of 4.5 M phosphoric acid. The sample is filtered using a […] pore size PVDF filtration device. 5 μl of the cleared sample is analyzed on an UPLC HSS T3 column (particle size 1.8 μm, dimensions 2, 1×50 mm; Waters) by isocratic elution using 90% 20 mM NaH2PO4 pH 2.2, 10% methanol (v/v).
HGA is detected electrochemically at 750 mV (mode: DC; polarity: positive) and quantified by integrating peak areas (Empower software; Waters).
Inhibitors are dissolved in DMSO (dimethylsulfoxide) to a concentration of 0.5 mM. From this stock solution serial five-fold dilutions are prepared in DMSO, which are used in the assay. The respective inhibitor solution accounts for 1% of the assay volume. Thus, final inhibitor concentrations range from 5 μM to 320 pM, respectively. […] IC50 values are calculated using non-linear regression. […]

[2] = tested on: transgenic soybean plants AtHPPD I393L L385V, event SDS-9908; assay: Greenhouse testing of soybean plants; assay type: in vivo, Glycine max; details: soybean AtHPPD I393L L385V SDS-9908, 14 days, average of 8 T1 individuals
Procedure: (§1) Transgenic plants expressing heterologous HPPD or HST enzymes are tested for tolerance against HPPD-inhibiting, preferably pyrazolone, isoxazole, or triketone derivative herbicides in greenhouse experiments.
(§2) For post emergence treatment, the test plants are first grown to a height of 3 to 15 cm, depending on the plant habit, and only then treated with the herbicides. For this purpose, the test plants are either sown directly and grown in the same containers, or they are first grown separately and transplanted into the test containers a few days prior to treatment.
(§3) For testing of T0 plants, cuttings can be used. In the case of soybean plants, an optimal shoot for cutting is about 7.5 to 10 cm tall, with at least two nodes present. Each cutting is taken from the original transformant (mother plant) and dipped into rooting hormone powder (indole-3-butyric acid, IBA). The cutting is then placed in oasis wedges inside a bio-dome. Wild type cuttings are also taken simultaneously to serve as controls. The cuttings are kept in the bio-dome for 5-7 days and then transplanted to pots and then acclimated in the growth chamber for two more days. Subsequently, the cuttings are transferred to the greenhouse, acclimated for approximately 4 days, and then subjected to spray tests as indicated.
(§4) Depending on the species, the plants are kept at 10-25° C. or 20-35° C. The test period extends over 3 weeks. During this time, the plants are tended and their response to the individual treatments is evaluated. Herbicide injury evaluations are taken at 2 and 3 weeks after treatment. Plant injury is rated on a scale of 0 to 9, 0 being no injury and 9 being complete death. Tolerance to HPPD-inhibiting, preferably pyrazolone, isoxazole, or triketone derivative herbicides can also be assessed in Arabidopsis. In this case transgenic Arabidopsis thaliana plants are assayed for improved tolerance to HPPD-inhibiting, preferably pyrazolone, isoxazole, or triketone derivative herbicides in 48-well plates. Seeds are surface sterilized by stirring for 5 min in ethanol+water (70+30 by volume), rinsing one time with ethanol+water (70+30 by volume) and two times with a sterile, deionized water. The seeds are resuspended in 0.1% agar dissolved in water (w/v). Four to five seeds per well are plated on solid nutrient medium consisting of half-strength Murashige Skoog nutrient solution, pH 5.8 (Murashige and Skoog (1962) Physiologia Plantarum 15: 473-497). Compounds are dissolved in dimethylsulfoxid (DMSO) and added to the medium prior solidification (final DMSO concentration 0.1%). Multi well plates are incubated in a growth chamber at 22° C., 75% relative humidity and 110 μmol Phot*m−2*s−1 with 14:10 h light:dark photoperiod. Seven to ten days after seeding growth inhibition is evaluated by comparison to wild type plants. Tolerance factor is calculated by dividing the plant growth IC50 value of transgenic plants containing a HPPD and/or HST sequence by that of wildtype plants.
(§5) Transgenic soy plants were sprayed with a range of doses from 6.25-100 g/ha with an HPPD-inhibiting herbicide and injury evaluations were taken two weeks after treatment. […] Compared to the untransformed wild-type, plants comprising polynucleotides encoding for Arabidopsis HPPD wild-type or mutated versions thereof were less susceptible to Inhibitor 1.

[3] = tested on: transgenic soybean plants AtHPPD P336A E363Q I393L L385V, event SDS-10085; assay: Greenhouse testing of soybean plants; assay type: in vivo, Glycine max; details: soybean AtHPPD P336A E363Q I393L L385V SDS-10085, 14 days, average of 8 T1 individuals
Procedure: as §1, §2, §3, §4, §5

Cc1c(C(=O)c2cnn(C)c2O)ccc(S(C)(=O)=O)c1C1=NOCC1 [Inhibitor 1, [3-(4,5-dihydroisoxazol-3-yl)-2-methyl-4-methylsulfonyl-phenyl]-(5-hydroxy-1-methyl-pyrazol-4-yl)methanone]
fold more resistant in respect to the reference SEQ ID NO:53 [1]: at least 1.7 fold
Injury evaluation (bleaching phenotype, scale of 1-100) ([2]; 6.25 g/ha): 0%
Injury evaluation (bleaching phenotype, scale of 1-100) ([2]; 25 g/ha): 8%
Injury evaluation (bleaching phenotype, scale of 1-100) ([2]; 100 g/ha): 54%
Injury evaluation (bleaching phenotype, scale of 1-100) ([3]; 6.25 g/ha): 16%
Injury evaluation (bleaching phenotype, scale of 1-100) ([3]; 25 g/ha): 35%
Injury evaluation (bleaching phenotype, scale of 1-100) ([3]; 100 g/ha): 78%
